Like-named read-outs stand apart in the source and are kept apart here.

Series [1] deals with Mouse lymphoma cells, line L5178Y clone 3.7.2.C. Nature of the series: Cell tissue culture cytotoxicity assay of relative drug/prodrug toxicity. It counts as cell-based. How it is done: A tissue culture assay using a mouse lymphoma cell line [Phillips (1974), Biochem. Pharmacol. 23, 131-138] was used to determine the relative toxicity of drug and prodrug samples. The cepholosporin - prodrugs tested were those of Example 2,5,6 - 10 and 12.
For compounds of Examples 2, and 7-10 the corresponding non-cephalosporin linked drug was tested. In the case of compounds of Examples 5, 6 and 12 the drug portion of the prodrug was generated in situ in the assay by the addition of the enzyme β-lactamase as indicated below.
Mouse lymphoma cells, line L5178Y clone 3.7.2.C, was used for these studies. This clone was derived from the L5178Y wild-type line and is heterozygous for the thymidine kinase locus. It is widely used for assays of mutation to thymidine analogue resistance (loss of thymidine kinase). Stocks were maintained frozen in liquid nitrogen and recovered 7 days before the start of the study.
The cells were grown in RPMI 1640 medium buffered with 25 mM HEPES, and supplemented with 10% horse serum, 1mM sodium pyruvate, and 0.05% Pluriol (PF 6800 from BASF). In most cases, penicillin (100 iu/ml) and streptomycin (100µg/ml) were also included in the medium. Stock cultures were maintained by subculture into fresh medium every 2-3 days. Incubation was at 37 °C in an atmosphere of 5% CO₂ in air. Under these conditions, the cells grew as a static cell suspension with a population doubling time (cell cycle time) of 10-12 hr.
A growing culture, at a cell density of 1-2 x 10⁶/ml, was diluted with fresh medium to a density of 5 x 10⁵ cells/ml. An appropriate number of universal bottles was prepared with 4.5ml medium and O.5ml cell suspension to give a final cell concentration of 5 x 10⁴ cells/ml. In some tests, the cells were centrifuged and resuspended in Hank's Balanced Salt Solution (HBSS) to allow treatment in a simpler medium. […]
Cell growth was expressed as the number of population doublings (PD) achieved during a given time period ( t hrs ), calculated as follows: [drawing 5]
Growth relative to control ( % G ) was calculated for each treatment as follows: [drawing 6] […]

Series [2] deals with O=C(Cc1cccs1)N[C@@H]1C(=O)N2C(C(=O)O)=C(CSc3ncnc4[nH]cnc34)CS[C@H]12. Kind of series: purified protein, by the assay type. Particulars: 37.0 °C.

For the compound `Nc1nc(SCC2=C(C(=O)O)N3C(=O)[C@@H](NC(=O)Cc4cccs4)[C@H]3SC2)c2[nH]cnc2n1` [Example 9, 3-(Guanin-6-ylthiomethyl)-7β-(2-acetamido)-3-cephem-4-carboxylic acid], the “Differential Toxicity (ID50 Prodrug/drug)” value in series [1] (mouse lymphoma L5178Y cells) stood at 13. In series [1] (mouse lymphoma L5178Y cells, growth relative to control, read-out: ID50 (the source's name)), the IC50 came out at 6.44 µM.

For “β-lactamase (E.coli RTEM) (Escherichia coli)”, the Km in series [2] was 138 µM.

Consider `Nc1nc2nc[nH]c2c(=S)[nH]1` [Thioguanine (drug), Thioguanine, reference compound], for which the IC50 in series [1] (Mus musculus, L5178Y, read-out: ID50) is 0.53 µM.

The values are drawn from patent EP0392745B1, “Immunoconjugates and prodrugs and their use in association for drug delivery” (CELLTECH LIMITED, priority 1989, dated 1990).
